Test results taken from PubChem BioAssay (NCI).
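The compound was tested at five concentrations on cells cultured in 96-well plates, with a 48-hour exposure period. TGI: total growth inhibition.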

Columns and labels:
Assay in all cases: inhibition of tumour cell growth, NCI panel, 48 h
OVCAR-8 ovarian = tested on: OVCAR-8 ovarian
M14 melanoma = tested on: M14 melanoma
SN12C renal = tested on: SN12C renal
SF-295 CNS = tested on: SF-295 CNS
786-0 renal = tested on: 786-0 renal
U251 CNS = tested on: U251 CNS
SF-539 CNS = tested on: SF-539 CNS
OVCAR-3 ovarian = tested on: OVCAR-3 ovarian
UACC-257 melanoma = tested on: UACC-257 melanoma
EKVX NSCLC = tested on: EKVX NSCLC
SK-MEL-2 melanoma = tested on: SK-MEL-2 melanoma
TK-10 renal = tested on: TK-10 renal
A549 NSCLC = tested on: A549 NSCLC
K-562 leukemia = tested on: K-562 leukemia
NCI-H522 lung = tested on: NCI-H522 lung
IGROV1 ovarian = tested on: IGROV1 ovarian
COLO 205 colon = tested on: COLO 205 colon
SK-OV-3 ovarian = tested on: SK-OV-3 ovarian
DMS 114 small cell lung = tested on: DMS 114 small cell lung
A498 renal = tested on: A498 renal
HOP-18 NSCLC = tested on: HOP-18 NSCLC
MOLT-4 leukemia = tested on: MOLT-4 leukemia
SW-620 colon = tested on: SW-620 colon
RXF-631 renal = tested on: RXF-631 renal
HCT-116 colon = tested on: HCT-116 colon
ACHN renal = tested on: ACHN renal
NCI-H226 lung = tested on: NCI-H226 lung
SK-MEL-5 melanoma = tested on: SK-MEL-5 melanoma
RPMI-8226 leukemia = tested on: RPMI-8226 leukemia
UACC-62 melanoma = tested on: UACC-62 melanoma
SNB-75 CNS = tested on: SNB-75 CNS
DLD-1 colon = tested on: DLD-1 colon
HT29 colon = tested on: HT29 colon
DMS 273 small cell lung = tested on: DMS 273 small cell lung
UO-31 renal = tested on: UO-31 renal
CCRF-CEM leukemia = tested on: CCRF-CEM leukemia
KM20L2 colon = tested on: KM20L2 colon
HCT-15 colon = tested on: HCT-15 colon
SNB-19 CNS = tested on: SNB-19 CNS
SK-MEL-28 melanoma = tested on: SK-MEL-28 melanoma
XF 498 CNS = tested on: XF 498 CNS
MALME-3M melanoma = tested on: MALME-3M melanoma
CAKI-1 renal = tested on: CAKI-1 renal
OVCAR-4 ovarian = tested on: OVCAR-4 ovarian
NCI-H23 lung = tested on: NCI-H23 lung
HL-60(TB) leukemia = tested on: HL-60(TB) leukemia
OVCAR-5 ovarian = tested on: OVCAR-5 ovarian
NCI-H460 lung = tested on: NCI-H460 lung
M19-MEL melanoma = tested on: M19-MEL melanoma
KM12 colon = tested on: KM12 colon
SF-268 CNS = tested on: SF-268 CNS
HOP-92 NSCLC = tested on: HOP-92 NSCLC
SNB-78 CNS = tested on: SNB-78 CNS
LXFL 529 NSCLC = tested on: LXFL 529 NSCLC
HOP-62 NSCLC = tested on: HOP-62 NSCLC
RXF 393 renal = tested on: RXF 393 renal
SR leukemia = tested on: SR leukemia
HCC-2998 colon = tested on: HCC-2998 colon
LOX IMVI melanoma = tested on: LOX IMVI melanoma

In the case of `CC(=O)Nc1cccc2[nH]c3ccccc3c(=O)c12`, the TGI (OVCAR-8 ovarian) is reported as 45.1 µM, the TGI (M14 melanoma) is reported as over 100 µM and the TGI (SN12C renal) is reported as over 100 µM. It also gave a TGI (SF-295 CNS) of 51.1 µM, a TGI (786-0 renal) of 51.1 µM and a TGI (U251 CNS) of 75.5 µM. For the same compound, the TGI (SF-539 CNS) was 63.7 µM, the TGI (OVCAR-3 ovarian) was 39.5 µM and the TGI (UACC-257 melanoma) was 58.3 µM. The TGI (EKVX NSCLC) was 78.6 µM, the TGI (SK-MEL-2 melanoma) was 38.7 µM and the TGI (TK-10 renal) was 50.1 µM. It also gave a TGI (A549 NSCLC) of 55.6 µM, a TGI (K-562 leukemia) of over 100 µM and a TGI (NCI-H522 lung) of 26.2 µM. It also gave a TGI (IGROV1 ovarian) of 70.3 µM, a TGI (COLO 205 colon) of 34 µM and a TGI (SK-OV-3 ovarian) of 67.4 µM. It also gave a TGI (DMS 114 small cell lung) of 79.6 µM, a TGI (A498 renal) of 29.6 µM and a TGI (HOP-18 NSCLC) of 38.6 µM. For the same compound, the TGI (MOLT-4 leukemia) was over 100 µM, the TGI (SW-620 colon) was 58.3 µM and the TGI (RXF-631 renal) was 94.8 µM. The TGI (HCT-116 colon) was 28.6 µM, the TGI (ACHN renal) was 52.3 µM and the TGI (NCI-H226 lung) was 40.5 µM. It also gave a TGI (SK-MEL-5 melanoma) of 30.4 µM, a TGI (RPMI-8226 leukemia) of 43.8 µM and a TGI (UACC-62 melanoma) of 31.1 µM. The TGI (SNB-75 CNS) was 65.9 µM, the TGI (DLD-1 colon) was 53.6 µM and the TGI (HT29 colon) was 40.9 µM. It also gave a TGI (DMS 273 small cell lung) of over 100 µM, a TGI (UO-31 renal) of 32.7 µM and a TGI (CCRF-CEM leukemia) of over 100 µM. The TGI (KM20L2 colon) was 83.3 µM, the TGI (HCT-15 colon) was 42.7 µM and the TGI (SNB-19 CNS) was 64.1 µM. The TGI (SK-MEL-28 melanoma) was 92.3 µM, the TGI (XF 498 CNS) was 50.2 µM and the TGI (MALME-3M melanoma) was 50.1 µM. It also gave a TGI (CAKI-1 renal) of 45.3 µM, a TGI (OVCAR-4 ovarian) of 65.1 µM and a TGI (NCI-H23 lung) of 29.5 µM. It also gave a TGI (HL-60(TB) leukemia) of 39.8 µM, a TGI (OVCAR-5 ovarian) of 54.2 µM and a TGI (NCI-H460 lung) of 43.2 µM. The TGI (M19-MEL melanoma) was 51.1 µM, the TGI (KM12 colon) was 41.2 µM and the TGI (SF-268 CNS) was 95.4 µM.
With `Cc1ccccc1NC(=O)C(=O)C1CN(c2ccccc2)N=C1N` (centres undefined) the TGI (OVCAR-8 ovarian) was over 100 µM, the TGI (M14 melanoma) was over 100 µM and the TGI (SN12C renal) was over 100 µM. It also gave a TGI (786-0 renal) of over 100 µM, a TGI (U251 CNS) of over 100 µM and a TGI (SF-539 CNS) of over 100 µM. For the same compound, the TGI (OVCAR-3 ovarian) was over 100 µM, the TGI (UACC-257 melanoma) was over 100 µM and the TGI (EKVX NSCLC) was over 100 µM. For the same compound, the TGI (A549 NSCLC) was over 100 µM, the TGI (K-562 leukemia) was over 100 µM and the TGI (NCI-H522 lung) was over 100 µM. The TGI (IGROV1 ovarian) was over 100 µM, the TGI (SK-OV-3 ovarian) was over 100 µM and the TGI (HOP-92 NSCLC) was over 100 µM. It also gave a TGI (A498 renal) of over 100 µM, a TGI (MOLT-4 leukemia) of over 100 µM and a TGI (RXF-631 renal) of over 100 µM. It also gave a TGI (SNB-78 CNS) of over 100 µM, a TGI (LXFL 529 NSCLC) of over 100 µM and a TGI (HCT-116 colon) of over 100 µM. For the same compound, the TGI (NCI-H226 lung) was over 100 µM, the TGI (HOP-62 NSCLC) was over 100 µM and the TGI (SNB-75 CNS) was over 100 µM. The TGI (DLD-1 colon) was over 100 µM, the TGI (HT29 colon) was over 100 µM and the TGI (RXF 393 renal) was over 100 µM. For the same compound, the TGI (UO-31 renal) was over 100 µM, the TGI (CCRF-CEM leukemia) was over 100 µM and the TGI (KM20L2 colon) was over 100 µM. For the same compound, the TGI (SNB-19 CNS) was over 100 µM, the TGI (SK-MEL-28 melanoma) was over 100 µM and the TGI (XF 498 CNS) was over 100 µM. For the same compound, the TGI (SR leukemia) was over 100 µM, the TGI (MALME-3M melanoma) was over 100 µM and the TGI (CAKI-1 renal) was over 100 µM. It also gave a TGI (OVCAR-4 ovarian) of over 100 µM, a TGI (NCI-H23 lung) of over 100 µM and a TGI (HL-60(TB) leukemia) of over 100 µM. For the same compound, the TGI (NCI-H460 lung) was over 100 µM, the TGI (HCC-2998 colon) was over 100 µM and the TGI (M19-MEL melanoma) was over 100 µM. It also gave a TGI (SF-268 CNS) of over 100 µM.
With `CC1(C)C(=NNC(=S)NN)C(C)(C)C1=NNC(=S)NN` the TGI (OVCAR-8 ovarian) was over 100 µM, the TGI (M14 melanoma) was over 100 µM and the TGI (SN12C renal) was over 100 µM. It also gave a TGI (SF-295 CNS) of over 100 µM, a TGI (786-0 renal) of over 100 µM and a TGI (SF-539 CNS) of over 100 µM. The TGI (OVCAR-3 ovarian) was over 100 µM, the TGI (UACC-257 melanoma) was over 100 µM and the TGI (EKVX NSCLC) was over 100 µM. The TGI (SK-MEL-2 melanoma) was over 100 µM, the TGI (TK-10 renal) was over 100 µM and the TGI (A549 NSCLC) was over 100 µM. For the same compound, the TGI (K-562 leukemia) was over 100 µM, the TGI (NCI-H522 lung) was over 100 µM and the TGI (IGROV1 ovarian) was over 100 µM. It also gave a TGI (COLO 205 colon) of over 100 µM, a TGI (SK-OV-3 ovarian) of over 100 µM and a TGI (DMS 114 small cell lung) of over 100 µM. The TGI (HOP-92 NSCLC) was over 100 µM, the TGI (SW-620 colon) was over 100 µM and the TGI (RXF-631 renal) was over 100 µM. It also gave a TGI (ACHN renal) of over 100 µM, a TGI (NCI-H226 lung) of over 100 µM and a TGI (SK-MEL-5 melanoma) of over 100 µM. For the same compound, the TGI (RPMI-8226 leukemia) was over 100 µM, the TGI (HOP-62 NSCLC) was over 100 µM and the TGI (UACC-62 melanoma) was over 100 µM. It also gave a TGI (SNB-75 CNS) of over 100 µM, a TGI (DLD-1 colon) of over 100 µM and a TGI (HT29 colon) of over 100 µM. For the same compound, the TGI (RXF 393 renal) was over 100 µM, the TGI (CCRF-CEM leukemia) was over 100 µM and the TGI (KM20L2 colon) was over 100 µM. The TGI (SNB-19 CNS) was over 100 µM, the TGI (SK-MEL-28 melanoma) was over 100 µM and the TGI (XF 498 CNS) was over 100 µM. For the same compound, the TGI (MALME-3M melanoma) was over 100 µM, the TGI (CAKI-1 renal) was over 100 µM and the TGI (OVCAR-4 ovarian) was over 100 µM. It also gave a TGI (NCI-H23 lung) of over 100 µM, a TGI (OVCAR-5 ovarian) of over 100 µM and a TGI (HCC-2998 colon) of over 100 µM. The TGI (M19-MEL melanoma) was over 100 µM, the TGI (LOX IMVI melanoma) was over 100 µM and the TGI (SF-268 CNS) was over 100 µM.
